Data from patent US10065954B2, “Substituted imidazo[4,5-c]pyridines as SSAO inhibitors” (Proximagen Limited, priority 2014, dated 2018).

Columns and labels:
[1] = biological target: T1, human ether a go-go related gene (hERG) K+ channel (Homo sapiens, UniProt Q12809); assay: hERG assay, IonWorks patch clamp electrophysiology; format: cell-based; details: Chinese Hamster Lung cell line stably expressing hERG; max assay concentration 11 uM
T1 construct: Chinese Hamster Lung cell line stably expressing the full length hERG channel; expressed in transfected cells; host or cells: Chinese Hamster Lung cell line
T1 sequence (Q12809 whole entry): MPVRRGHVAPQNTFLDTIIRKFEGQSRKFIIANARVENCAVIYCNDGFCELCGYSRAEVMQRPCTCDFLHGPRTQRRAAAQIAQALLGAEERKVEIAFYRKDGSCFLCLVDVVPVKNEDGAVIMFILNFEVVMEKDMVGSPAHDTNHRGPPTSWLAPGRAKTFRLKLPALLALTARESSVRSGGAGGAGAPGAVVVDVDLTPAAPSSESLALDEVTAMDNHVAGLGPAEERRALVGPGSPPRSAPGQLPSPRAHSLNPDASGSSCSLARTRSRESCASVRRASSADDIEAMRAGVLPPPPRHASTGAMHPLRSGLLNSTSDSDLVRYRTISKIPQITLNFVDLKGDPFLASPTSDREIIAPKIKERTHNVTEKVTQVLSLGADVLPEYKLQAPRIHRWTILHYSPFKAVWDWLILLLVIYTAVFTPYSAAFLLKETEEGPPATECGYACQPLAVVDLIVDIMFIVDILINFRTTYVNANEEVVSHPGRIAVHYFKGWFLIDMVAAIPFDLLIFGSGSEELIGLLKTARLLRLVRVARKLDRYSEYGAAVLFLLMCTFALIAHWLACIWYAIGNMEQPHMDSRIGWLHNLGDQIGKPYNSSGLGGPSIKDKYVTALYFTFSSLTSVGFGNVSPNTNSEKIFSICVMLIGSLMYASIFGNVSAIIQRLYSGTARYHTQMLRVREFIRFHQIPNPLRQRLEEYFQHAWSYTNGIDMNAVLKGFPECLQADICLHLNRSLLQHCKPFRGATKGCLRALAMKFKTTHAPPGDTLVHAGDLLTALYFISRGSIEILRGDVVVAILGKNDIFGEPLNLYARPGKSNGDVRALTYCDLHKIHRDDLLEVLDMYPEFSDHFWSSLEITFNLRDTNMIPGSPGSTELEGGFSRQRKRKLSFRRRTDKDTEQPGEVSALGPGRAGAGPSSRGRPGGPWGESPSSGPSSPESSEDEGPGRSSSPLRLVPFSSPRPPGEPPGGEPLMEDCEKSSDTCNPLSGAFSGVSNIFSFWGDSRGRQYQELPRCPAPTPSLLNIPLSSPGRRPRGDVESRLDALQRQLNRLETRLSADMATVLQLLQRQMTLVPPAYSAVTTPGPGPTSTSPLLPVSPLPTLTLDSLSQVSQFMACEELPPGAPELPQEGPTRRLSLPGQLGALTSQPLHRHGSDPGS
Protocol: Compounds of the invention were tested for inhibition of the human ether a go-go related gene (hERG) K^+ channel using IonWorks patch clamp electrophysiology. 8 Point concentration-response curves were generated on two occasions using 3-fold serial dilutions from the maximum assay concentration (11 uM). Electrophysiological recordings were made from a Chinese Hamster Lung cell line stably expressing the full length hERG channel. Single cell ion currents were measured in the perforated patch clamp configuration (100 ug/mL amphoterocin) at RT using an IonWorks Quattro instrument. The internal solution contained 140 mM KCl, 1 mM MgCl2, 1 mM EGTA and 20 mM HEPES and was buffered to pH 7.3. The external solution contained 138 mM NaCl, 2.7 mM KCl, 0.9 mM CaCl2, 0.5 mM MgCl2, 8 mM Na2HPO4 and 1.5 mM KH2PO4, and was buffered to pH 7.3. Cells were clamped at a holding potential of […] for 30 s and then stepped to +40 mV for 1 s. This was followed by a hyperpolarising step of 1 s to […] to evoke the hERG tail current. This sequence was repeated 5 times at a frequency of 0.25 Hz. Currents were measured from the tail step at the 5th pulse, and referenced to the holding current. Compounds were incubated for 6-7 min prior to a second measurement of the hERG signal using an identical pulse train. A minimum of 17 cells were required for each pIC50 curve fit. A control compound (quinidine) was used (see Table 13 below).

[2] = biological target: T2, purified recombinantly expressed human SSAO (Homo sapiens, UniProt Q16853); assay: SSAO enzyme inhibition assay (benzylamine substrate; hydrogen peroxide/HRP-coupled or 14C-aldehyde detection); format: biochemical; details: SSAO inhibitory activity; recombinant human SSAO, RT
T2 construct: made in house
T2 sequence (Q16853 1-763): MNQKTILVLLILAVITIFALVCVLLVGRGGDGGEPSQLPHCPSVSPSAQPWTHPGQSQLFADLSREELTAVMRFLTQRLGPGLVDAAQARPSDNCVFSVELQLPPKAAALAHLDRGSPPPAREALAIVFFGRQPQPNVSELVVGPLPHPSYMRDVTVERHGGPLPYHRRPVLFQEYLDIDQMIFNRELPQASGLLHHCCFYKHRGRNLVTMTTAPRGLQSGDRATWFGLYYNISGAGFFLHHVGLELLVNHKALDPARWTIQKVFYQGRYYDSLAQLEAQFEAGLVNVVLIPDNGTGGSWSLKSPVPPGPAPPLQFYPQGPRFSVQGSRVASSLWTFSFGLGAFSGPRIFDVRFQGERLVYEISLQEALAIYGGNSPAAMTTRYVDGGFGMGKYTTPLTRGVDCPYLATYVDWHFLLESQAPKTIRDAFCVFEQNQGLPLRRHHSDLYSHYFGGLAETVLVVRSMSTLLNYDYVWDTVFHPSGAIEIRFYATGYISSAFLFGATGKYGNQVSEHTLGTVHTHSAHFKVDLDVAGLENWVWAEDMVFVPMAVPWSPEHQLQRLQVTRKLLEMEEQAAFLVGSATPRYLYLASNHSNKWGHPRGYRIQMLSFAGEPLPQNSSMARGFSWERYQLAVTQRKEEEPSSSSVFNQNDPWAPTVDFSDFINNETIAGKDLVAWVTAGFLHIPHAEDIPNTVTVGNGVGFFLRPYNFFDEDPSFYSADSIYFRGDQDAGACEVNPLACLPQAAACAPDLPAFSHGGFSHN
Protocol: All primary assays were performed at RT. with purified recombinantly expressed human SSAO. Enzyme was prepared essentially as described in Öhman et al. (Protein Expression and Purification 46 (2006) 321-331). In addition, secondary- and selectivity assays were performed using SSAO prepared from various tissues or purified rat recombinant SSAO. The enzyme activity was assayed with benzylamine as substrate by measuring either benzaldehyde production, using ^14C-labeled substrate, or by utilizing the production of hydrogen peroxide in a horseradish peroxidase (HRP) coupled reaction. Briefly, test compounds were dissolved in dimethyl sulfoxide (DMSO) to a concentration of 10 mM. Dose-response measurements were assayed by either creating 1:10 serial dilutions in DMSO to produce a 7 point curve or by making 1:3 serial dilutions in DMSO to produce 11 point curves. The top concentrations were adjusted depending on the potency of the compounds and subsequent dilution in reaction buffer yielded a final DMSO concentration ≤2%.
In a horseradish peroxidase (HRP) coupled reaction, hydrogen peroxide oxidation of 10-acetyl-3,7-dihydroxyphenoxazine produced resorufin, which is a highly fluorescent compound (Zhout and Panchuk-Voloshina. Analytical Biochemistry 253 (1997) 169-174; Amplex® Red Hydrogen Peroxide/peroxidase Assay kit, Invitrogen A22188). Enzyme and compounds in 50 mM sodium phosphate, pH 7.4 were set to pre-incubate in flat-bottomed microtiter plates for approximately 15 min before initiating the reaction by addition of a mixture of HRP, benzylamine and Amplex reagent. Benzylamine concentration was fixed at a concentration corresponding to the Michaelis constant, determined using standard procedures. Fluorescence intensity was then measured at several time points during 1-2 h, exciting at 544 nm and reading the emission at 590 nm. For the human SSAO assay final concentrations of the reagents in the assay wells were: SSAO enzyme 1 ug/mL, benzylamine 100 uM, Amplex reagent 20 uM, HRP 0.1 U/mL and varying concentrations of test compound. The inhibition was measured as % decrease of the signal compared to a control without inhibitor (only diluted DMSO). The background signal from a sample containing no SSAO enzyme was subtracted from all data points. Data was fitted to a four parameter logistic model and IC50 values were calculated using the GraphPad Prism 4 or XLfit 4 programs.
SSAO activity was assayed using […] benzylamine and analysed by measuring radioactive benzaldehyde. In a white 96-well optiplate (Packard), 20 uL of diluted test compound was pre-incubated at RT with 20 uL SSAO enzyme for approximately 15 min with continuous agitation. All dilutions were made with PBS. The reaction was initiated by adding 20 uL of the benzylamine substrate solution containing Benzylamine hydrochloride (CFA589, GE Healthcare). The plate was incubated for 1 h as above after which the reaction was stopped by acidification (10 uL 1M aq HCl). Then 90 uL Micro Scint-E solution (Perkin-Elmer) was added to each well and the plate was continuously mixed for 15 min. Phase separation occurred instantly and activity was read in a Topcount scintillation counter (Perkin-Elmer). In the final reaction well, the human recombinant SSAO concentration was 10 ug/mL. In order to optimize sensitivity, the substrate concentration was decreased as compared to the HRP coupled assay in order to get a higher fraction of radioactive product. In the human SSAO assay, benzylamine concentration was 40 uM (0.2uCi/mL). Data was analysed as above.

IC50 [2] [nM] | Compound | IC50 [1] [nM]
< 50 | Cc1ccc(-n2c(-c3ccc(NC4CCOCC4)nc3)nc3ccncc32)cc1 [Compound 10, 5-[3-(4-Methylphenyl)-3H-imidazo[4,5-c]pyridin-2-yl]-N-(oxan-4-yl)pyridin-2-amine] | > 10000
< 50 | Cc1cc(N2CCOCC2)ncc1-c1nc2ccncc2n1-c1ccc(Cl)cn1 [Compound 12, 4-{5-[3-(5-Chloropyridin-2-yl)-3H-imidazo[4,5-c]pyridin-2-yl]-4-methylpyridin-2-yl}morpholine] | > 10000
< 50 | Fc1ccc(-n2c(-c3ccc(NC4CCOCC4)nc3)nc3ccncc32)cc1 [Compound 15, 5-[3-(4-Fluorophenyl)-3H-imidazo[4,5-c]pyridin-2-yl]-N-(oxan-4-yl)pyridin-2-amine] | > 10000
< 50 | Cc1ccc(-n2c(-c3ccc(NC4CC4)nc3)nc3ccncc32)cc1 [Compound 17, N-Cyclopropyl-5-[3-(4-methylphenyl)-3H-imidazo[4,5-c]pyridin-2-yl]pyridin-2-amine] | > 10000
< 50 | Cc1ccc(-n2c(-c3ccc(N4CCCC4)nc3)nc3ccncc32)cn1 [Compound 18, 5-[3-(6-Methylpyridin-3-yl)-3H-imidazo[4,5-c]pyridin-2-yl]-2-(pyrrolidin-1-yl)pyridine] | > 10000
< 50 | Cc1ccc(-n2c(-c3ccc(N4CCC(F)CC4)nc3)nc3ccncc32)cn1 [Compound 19, 2-(4-Fluoropiperidin-1-yl)-5-[3-(6-methylpyridin-3-yl)-3H-imidazo[4,5-c]pyridin-2-yl]pyridine] | > 10000
< 50 | Cc1ccc(-n2c(-c3ccc(NC(C)C)nc3)nc3ccncc32)cc1 [Compound 24, 5-[3-(4-Methylphenyl)-3H-imidazo[4,5-c]pyridin-2-yl]-N-(propan-2-yl)pyridin-2-amine] | 
50 to 200 | Cc1ccc(-n2c(-c3cnc(N4CCCC4)nc3)nc3ccncc32)cn1 [Compound 25, 5-[3-(6-Methylpyridin-3-yl)-3H-imidazo[4,5-c]pyridin-2-yl]-2-(pyrrolidin-1-yl)pyrimidine] | 
50 to 200 | Cc1ccc(-n2c(-c3cnc(N4CCCC4)nc3)nc3ccncc32)nc1 [Compound 26, 5-[3-(5-Methylpyridin-2-yl)-3H-imidazo[4,5-c]pyridin-2-yl]-2-(pyrrolidin-1-yl)pyrimidine] | 
50 to 200 | Fc1ccc(-n2c(-c3cnc(N4CCCC4)nc3)nc3ccncc32)nc1 [Compound 27, 5-[3-(5-Fluoropyridin-2-yl)-3H-imidazo[4,5-c]pyridin-2-yl]-2-(pyrrolidin-1-yl)pyrimidine] | 
50 to 200 | Cc1ccc(-n2c(-c3ccc(N4CCOCC4)cc3)nc3ccncc32)cn1 [Compound 28, 4-{4-[3-(6-Methylpyridin-3-yl)-3H-imidazo[4,5-c]pyridin-2-yl]phenyl}morpholine] | 
< 50 | Cc1ccc(-n2c(-c3cnc(N4CCCC4)nc3)nc3ccncc32)cc1 [Compound 29, 5-[3-(4-Methylphenyl)-3H-imidazo[4,5-c]pyridin-2-yl]-2-(pyrrolidin-1-yl)pyrimidine] | 
200 to 1200 | Cc1ccc(-n2c(-c3ccc(N4CCOCC4)cc3)nc3ccncc32)nc1 [Compound 30, 4-{4-[3-(5-Methylpyridin-2-yl)-3H-imidazo[4,5-c]pyridin-2-yl]phenyl}morpholine] | 
< 50 | Cc1ccc(-n2c(-c3ccc(N4CCCC4)cc3)nc3ccncc32)cn1 [Compound 31, 2-Methyl-5-{2-[4-(pyrrolidin-1-yl)phenyl]-3H-imidazo[4,5-c]pyridin-3-yl}pyridine] | 
< 50 | Cc1ccc(-n2c(-c3ccc(N4CCCC4)cc3F)nc3ccncc32)cn1 [Compound 32, 5-{2-[2-Fluoro-4-(pyrrolidin-1-yl)phenyl]-3H-imidazo[4,5-c]pyridin-3-yl}-2-methylpyridine] | 
50 to 200 | Cc1ccc(-n2c(-c3ccc(N4CCOCC4)cc3F)nc3ccncc32)cn1 [Compound 33, 4-{3-Fluoro-4-[3-(6-methylpyridin-3-yl)-3H-imidazo[4,5-c]pyridin-2-yl]phenyl}morpholine] | 
50 to 200 | Cc1ccc(-n2c(-c3ccc(N4CCCC4)c(F)c3)nc3ccncc32)cn1 [Compound 34, 5-{2-[3-Fluoro-4-(pyrrolidin-1-yl)phenyl]-3H-imidazo[4,5-c]pyridin-3-yl}-2-methylpyridine] | 
200 to 1200 | Cc1ccc(-n2c(-c3ccc(NC4CCOCC4)cc3)nc3ccncc32)cn1 [Compound 35, N-{4-[3-(6-Methylpyridin-3-yl)-3H-imidazo[4,5-c]pyridin-2-yl]phenyl}oxan-4-amine] | 
50 to 200 | Cc1ccc(-n2c(-c3ccc(N4CCCC4)cc3)nc3ccncc32)nc1 [Compound 36, 5-Methyl-2-{2-[4-(pyrrolidin-1-yl)phenyl]-3H-imidazo[4,5-c]pyridin-3-yl}pyridine] | 
50 to 200 | Cc1ccc(-n2c(-c3ccc(N4CCC(F)CC4)cc3)nc3ccncc32)cn1 [Compound 37, 5-{2-[4-(4-Fluoropiperidin-1-yl)phenyl]-3H-imidazo[4,5-c]pyridin-3-yl}-2-methylpyridine] | 
200 to 1200 | Clc1ccc(-n2c(-c3ccc(Cl)nc3)nc3ccncc32)cc1 [Compound 38, 2-Chloro-5-[3-(4-chlorophenyl)-3H-imidazo[4,5-c]pyridin-2-yl]pyridine] | 
200 to 1200 | Fc1ccc(-n2c(-c3ccc(Cl)nc3)nc3ccncc32)cc1 [Compound 39, 2-Chloro-5-[3-(4-fluorophenyl)-3H-imidazo[4,5-c]pyridin-2-yl]pyridine] | 
